Measurements from patent US10206907B2, “Compounds useful for the treatment of degenerative and inflammatory diseases” (GALAPAGOS NV, priority 2008, dated 2019).
Like-named read-outs stand apart in the source and are kept apart here.

Experiments:
[1] = Caco2 permeability (bi-directional); type: in vitro ADME, human; settings: human, pH 7.4; for Papp A→B at 1 h, 10 µM: Caco-2, apical to basolateral, read-out: Papp (A2B); for efflux ratio at 1 h, 10 µM: Caco-2, ratio of PappB>A/PappA>B
Procedure, shortened: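 Compound concentrations in both chambers were measured by LC-MS/MS after 1 h incubation at 37 °C on an orbital shaker. Efflux ratio is PappB>A over PappA>B. Lucifer Yellow (50 μM in donor) confirmed layer integrity, with permeability of ≤100 nm/s required.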

[2] = target: Recombinant human TYK2 catalytic domain (Homo sapiens (Human), UniProt P29597); experiment: TYK2 inhibition assay; type: biochemical
Protocol: After 90 min at 30° C., reactions were stopped by adding of 25 μL/well of 150 mM phosphoric acid. […] Plates were washed 6 times with 300 μL per well of a 75 mM phosphoric acid solution and the bottom of the plates was sealed. 40 μL/well of Microscint-20 was added, the top of the plates was sealed and readout was performed using the Topcount (Perkin Elmer). Kinase activity was calculated by subtracting counts per minute (cpm) obtained in the presence of a positive control inhibitor (10 μM staurosporine) from cpm obtained in the presence of vehicle. The ability of a test compound to inhibit this activity was determined as: Percentage inhibition=((cpm determined for sample with test compound present−cpm determined for sample with positive control inhibitor) divided by (cpm determined in the presence of vehicle−cpm determined for sample with positive control inhibitor))*100%.
Dose dilution series were prepared for the compounds enabling the testing of dose-response effects in the TYK2 assay and the calculation of the IC50 for each compound.

[3] = test system: JAK-STAT signalling in HeLa cells; experiment: JAK-STAT signalling assay (OSM-triggered pSTAT1(2)-luciferase reporter in HeLa cells); type: cell-based; settings: Homo sapiens; HeLa cells, OSM-triggered pSTAT1(2)-luciferase reporter; read-out: STAT signalling EC50
Procedure, shortened: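 Read-out is oncostatin M–driven pSTAT1(2)-luciferase activity, corrected by co-transfected LacZ β-galactosidase, in transiently transfected HeLa cells cultured overnight at 37 °C, 10% CO2. Inhibition percentages against positive and negative controls were plotted across doses to derive EC50.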

[4] = target: Recombinant human JAK2 catalytic domain (Homo sapiens (Human), UniProt O60674); experiment: JAK2 inhibition assay; type: biochemical
Procedure, shortened: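 Activity was taken as vehicle cpm minus cpm with 10 μM staurosporine, and inhibition was expressed on that scale. Incubation was 90 min at 30 °C, followed by acid quench, phosphoric acid washes and Microscint counting. Compounds were tested as dose series to obtain IC50.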

[5] = target: Recombinant human JAK3 catalytic domain (Homo sapiens (Human), UniProt P52333); experiment: JAK3 inhibition assay; type: biochemical; settings: semi-quantitative score
[6] = Microsomal stability, human liver microsomes; type: in vitro ADME; settings: percentage of compound remaining after 60 minutes, 3 μM compound
Procedure, shortened: (§1)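 Percent parent remaining after 60 min was determined by LCMS against a time-zero sample quenched before microsome addition. Incubations ran at 37°C with liver microsomes and a G6PDH-based NADPH-regenerating cofactor mix. Quench was MeOH or ACN (1:1).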

[7] = target: Recombinant human JAK1 catalytic domain (Homo sapiens (Human), UniProt P23458); experiment: JAK1 inhibition assay; type: biochemical
Procedure, shortened: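 IC50 values come from dose-response series, with each point expressed as percent inhibition of cpm. Vehicle sets full activity and 10 μM staurosporine sets background. Incorporated radioactivity counted by scintillation after washing with 75 mM phosphoric acid.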

[8] = Microsomal stability, rat liver microsomes; type: in vitro ADME; settings: percentage of compound remaining after 60 minutes, 3 μM compound
Procedure, shortened: as §1

MMP13 in SW1353 cells = experiment: OSM/IL-1β signaling assay (MMP13 levels in SW1353 cells); type: cell-based; settings: Homo sapiens; SW1353 cells, OSM and IL-1β triggered, MMP13 levels 48 hours after triggering; read-out: MMP13 EC50;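 note: secreted MMP13 captured by antibody, activated with APMA and its activity read by fluorescence, inhibition scaled between vehicle-treated triggered wells (0%) and untriggered wells (100%)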

Chain of Recombinant human JAK1 catalytic domain (P23458 850-1154): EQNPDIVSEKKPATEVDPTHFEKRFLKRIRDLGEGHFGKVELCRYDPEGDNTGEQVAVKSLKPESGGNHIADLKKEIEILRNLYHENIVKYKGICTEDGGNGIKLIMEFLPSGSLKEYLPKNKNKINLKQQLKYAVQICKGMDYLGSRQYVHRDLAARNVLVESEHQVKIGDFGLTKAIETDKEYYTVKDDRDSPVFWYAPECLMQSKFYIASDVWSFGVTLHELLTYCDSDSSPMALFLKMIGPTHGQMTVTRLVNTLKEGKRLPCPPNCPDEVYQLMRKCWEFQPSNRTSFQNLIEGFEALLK
Chain of Recombinant human JAK3 catalytic domain (P52333 781-1124): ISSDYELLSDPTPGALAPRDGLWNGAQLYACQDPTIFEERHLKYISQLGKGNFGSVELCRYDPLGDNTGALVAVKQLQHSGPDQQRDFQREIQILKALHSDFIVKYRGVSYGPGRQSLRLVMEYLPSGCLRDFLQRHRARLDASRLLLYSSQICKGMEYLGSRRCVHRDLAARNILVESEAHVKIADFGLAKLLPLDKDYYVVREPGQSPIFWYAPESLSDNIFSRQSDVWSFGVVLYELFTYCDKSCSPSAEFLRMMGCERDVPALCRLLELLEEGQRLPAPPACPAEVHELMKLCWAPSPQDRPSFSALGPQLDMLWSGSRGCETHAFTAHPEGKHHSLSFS
Chain of Recombinant human JAK2 catalytic domain (O60674 808-1132): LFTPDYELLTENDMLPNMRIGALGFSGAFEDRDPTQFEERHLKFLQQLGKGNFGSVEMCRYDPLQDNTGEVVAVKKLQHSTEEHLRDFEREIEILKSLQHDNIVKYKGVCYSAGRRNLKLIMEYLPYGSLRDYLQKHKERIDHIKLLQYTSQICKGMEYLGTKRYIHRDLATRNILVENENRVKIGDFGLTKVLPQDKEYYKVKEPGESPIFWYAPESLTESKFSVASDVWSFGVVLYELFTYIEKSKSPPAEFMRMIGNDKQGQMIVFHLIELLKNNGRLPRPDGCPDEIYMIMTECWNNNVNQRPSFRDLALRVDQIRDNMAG
Chain of Recombinant human TYK2 catalytic domain (P29597 871-1187): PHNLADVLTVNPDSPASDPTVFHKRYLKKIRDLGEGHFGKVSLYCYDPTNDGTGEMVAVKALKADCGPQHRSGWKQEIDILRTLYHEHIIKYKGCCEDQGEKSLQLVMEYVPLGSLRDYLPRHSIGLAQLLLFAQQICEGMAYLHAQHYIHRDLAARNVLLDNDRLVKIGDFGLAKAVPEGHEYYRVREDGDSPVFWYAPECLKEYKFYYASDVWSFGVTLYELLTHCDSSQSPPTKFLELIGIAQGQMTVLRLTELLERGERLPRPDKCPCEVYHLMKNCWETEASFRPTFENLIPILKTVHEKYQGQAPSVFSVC

| SMILES | Papp A→B at 1 h, 10 µM [1] [×10⁻⁶ cm/s] | efflux ratio at 1 h, 10 µM [1] | IC50 ([2]; semi-quantitative score) [nM] | EC50 [3] [nM] | IC50 ([4]; semi-quantitative score) [nM] | IC50 [5] [nM] | Microsomal Stability Human (%) [6] | IC50 ([7]; semi-quantitative score) [nM] | Microsomal Stability Rat (%) [8] | EC50 (MMP13 in SW1353 cells) [nM] | IC50 [2] [nM] | IC50 [4] [nM] | IC50 [7] [nM] |
| --- | --- | --- | --- | --- | --- | --- | --- | --- | --- | --- | --- | --- | --- |
| O=C(Nc1nc2cccc(-c3ccc(S(=O)(=O)NC4CC4)cc3)n2n1)C1CC1 [Compound 13, N-(5-(4-(N-cyclopropylsulfamoyl)phenyl)-[1,2,4]triazolo[1,5-a]pyridin-2-yl)cyclopropanecarboxamide] | 3.03 | 11.9 | 501 to 1000 | > 1000 | < 100 | > 1000 | *** (*** 51-75) | < 100 | **** (**** 76-100) | > 1000 |  |  |  |
| O=C(Nc1nc2cccc(-c3ccc(OCc4ccccc4)c(F)c3)n2n1)C1CC1 [Compound 15, N-(5-(4-(benzyloxy)-3-fluorophenyl)-[1,2,4]triazolo[1,5-a]pyridin-2-yl)cyclopropanecarboxamide] |  | 0.91 | > 1000 | 101 to 500 | < 100 | 101 to 500 | ** (** 26-50) | < 100 | * (* 0-25) | > 1000 |  |  |  |
| O=C(Nc1nc2cccc(-c3ccc(C(=O)N4CCCCC4)cc3)n2n1)C1CC1 [Compound 17] | 11.4 | 2.97 | 501 to 1000 | > 1000 | 101 to 500 | > 1000 | **** (**** 76-100) | < 100 | ** (** 26-50) | > 1000 |  |  |  |
| O=C(Nc1nc2cccc(-c3ccc(OC4CCCC4)cc3)n2n1)C1CC1 [Compound 40, N-(5-(4-(cyclopentyloxy)phenyl)-[1,2,4]triazolo[1,5-a]pyridin-2-yl)cyclopropanecarboxamide] | 44.9 | 0.67 | 501 to 1000 | 101 to 500 | < 100 | 501 to 1000 | * (* 0-25) | < 100 | * (* 0-25) | 1 to 500 |  |  |  |
| O=C(NCc1ccccc1)c1ccc(-c2cccc3nc(NC(=O)C4CC4)nn23)cc1 [Compound 56, N-benzyl-4-(2-(cyclopropanecarboxamido)-[1,2,4]triazolo[1,5-a]pyridin-5-yl)benzamide] |  |  | > 1000 | > 1000 | 101 to 500 | > 1000 | **** (**** 76-100) | < 100 | * (* 0-25) | > 1000 |  |  |  |
| O=C(Nc1nc2cccc(-c3ccc(OCc4ccccc4)nc3)n2n1)C1CC1 [Compound 57, Cyclopropanecarboxylic Acid [5-(6-benzyloxy-pyridin-3-yl)-[1,2,4]triazolo[1,5-a]pyridin-2-yl]-amide] |  |  |  | > 1000 |  | 501 to 1000 | ** (** 26-50) |  | ** (** 26-50) | > 1000 | > 1000 | < 100 | < 100 |
| O=C(Nc1nc2cccc(-c3ccc(C(=O)N4CCc5ccccc5C4)cc3)n2n1)C1CC1 [Compound 58] |  |  | > 1000 | > 1000 | 101 to 500 | > 1000 | * (* 0-25) | < 100 | * (* 0-25) | 501 to 1000 |  |  |  |
| Cc1cc(COc2ccc(-c3cccc4nc(NC(=O)C5CC5)nn34)cc2)nn1C [Compound 62] |  |  | > 1000 | > 1000 | < 100 | 101 to 500 | ** (** 26-50) | < 100 | * (* 0-25) | > 1000 |  |  |  |
| O=C(COc1ccc(-c2cccc3nc(NC(=O)C4CC4)nn23)cc1)Nc1cccc(F)c1 [Compound 116, N-(5-(4-(2-(3-fluorophenylamino)-2-oxoethoxy)phenyl)-[1,2,4]triazolo[1,5-a]pyridin-2-yl)cyclopropanecarboxamide] |  |  | > 1000 | > 1000 | 101 to 500 | 501 to 1000 | *** (*** 51-75) | < 100 | * (* 0-25) | > 1000 |  |  |  |
| O=C(N[C@H]1CCN(Cc2ccccc2)C1)c1ccc(-c2cccc3nc(NC(=O)C4CC4)nn23)cc1 [Compound 119, (S)-N-(1-benzylpyrrolidin-3-yl)-4-(2-(cyclopropanecarboxamido)-[1,2,4]triazolo[1,5-a]pyridin-5-yl)benzamide] |  |  | > 1000 | > 1000 | 101 to 500 | > 1000 | * (* 0-25) | < 100 | ** (** 26-50) | > 1000 |  |  |  |
| O=C(Nc1nc2cccc(-c3ccc4c(ccn4Cc4ccccc4)c3)n2n1)C1CC1 [Compound 121, Cyclopropanecarboxylic Acid [5-(1-benzyl-1H-indol-5-yl)-[1,2,4]triazolo[1,5-a]pyridin-2-yl]-amide] |  |  | > 1000 | 501 to 1000 | < 100 | 501 to 1000 | * (* 0-25) | < 100 | * (* 0-25) | > 1000 |  |  |  |
| O=C(Nc1nc2cccc(-c3ccc(C(=O)N4CCC(O)(Cc5ccccc5)CC4)cc3)n2n1)C1CC1 [Compound 156, N-(5-(4-(4-benzyl-4-hydroxypiperidine-1-carbonyl)phenyl)-[1,2,4]triazolo[1,5-a]pyridin-2-yl)cyclopropanecarboxamide] | 4.1 | 11.5 | 101 to 500 | 101 to 500 | < 100 | 101 to 500 | ** (** 26-50) | < 100 | ** (** 26-50) |  |  |  |  |
